Here are results for seven molecules from publication PMC2801547 (Journal of medicinal chemistry, 2009).

The conditions of series [1]: NOD/SCID mice, 5-50 mg/kg daily for five days, IV and IP, day 5.
The subject of series [2] is normal human foreskin fibroblasts (HFF). Put plainly: cells. The conditions noted are these: Fibroblast, 72 h.
Series [3] has as its system pTN24 dual-reporter splicing construct in 293T cells. Kind of series: Dual-reporter cell-based splicing assay. The conditions noted are these: 5 hours treatment.
The test system of series [4] is JeKo-1 mantle cell lymphoma tumors. The conditions noted are these: JeKo-1 tumor-bearing mice, Supplemental Figure S2.
For series [5] the following is noted: cited from earlier work.
Series [6] relates to several tumor cell lines. The conditions noted are these: cited from earlier work.
The subject of series [7] is panel of human cancer cell lines. The conditions noted are these: read-out: IC50 in all cell lines tested; all tumor lines examined; cited from earlier work.
The subject of series [8] is WiDr colorectal adenocarcinoma cells. Put plainly: cells. The conditions noted are these: Homo sapiens, 72 h.

Regarding `CC(/C=C/[C@@H]1C[C@]2(CO2)CC(C)(C)O1)=C\C[C@H]1CC[C@@H](NC(=O)/C=C\[C@H](C)OC(=O)C(C)C)CC1` [compound 5, (S,Z)-5-((1R,4R)-4-((2E,4E)-5-((3R,5S)-7,7-dimethyl-1,6-dioxaspiro[2.5]octan-5-yl)-3-methylpenta-2,4-dienyl)cyclohexylamino)-5-oxopent-3-en-2-yl isobutyrate], the “blood cell counts (CBC) versus vehicle-only mice” value in series [1] was “No significant differences in blood cell counts”. In series [2], the IC50 (as a rule, the midpoint of a concentration-inhibition curve) is above 10 µM. Regarding `CC(/C=C/[C@@H]1C[C@]2(CO2)CC(C)(C)O1)=C\C[C@H]1CC[C@@H](NC(=O)/C=C\[C@H](C)O)CC1` [compound 4], the “effect on splicing (ratio of luciferase to β-galactosidase activity)” value in series [3] was “altered splicing only very slightly at the highest concentration tested”. Regarding `CC(=O)N[C@H]1CO[C@@H](C/C=C(C)/C=C/[C@@H]2C[C@]3(CO3)CC(C)(C)O2)OC1` [compound 27, N-((2s,5R)-2-((2E,4E)-5-((3R,5S)-7,7-dimethyl-1,6-dioxaspiro[2.5]octan-5-yl) -3-methylpenta-2,4-dienyl)-1,3-dioxan-5-yl)acetamide], the “effect on splicing (ratio of luciferase to β-galactosidase activity)” value in series [3] is “had no effect”. As to `CC(/C=C/[C@@H]1C[C@]2(CO2)CC(C)(C)O1)=C\C[C@H]1OC[C@@H](NC(=O)/C=C\[C@H](C)OC(=O)C(C)C)CO1` [compound 26, (S,Z)-5-((2R,5R)-2-((2E,4E)-5-((3R,5S)-7,7-dimethyl-1,6-dioxaspiro[2.5]octan-5-yl)-3-methylpenta-2,4-dienyl)-1,3-dioxan-5-ylamino)-5-oxopent-3-en-2-yl isobutyrate], the “effect on splicing (ratio of luciferase to β-galactosidase activity)” value in series [3] is “selectively inhibit splicing”. Also, in series [4], the “in vivo anti-cancer activity” value is recorded as “robust anti-cancer activity that was comparable to compound 5”.

Take `CC[C@H](O)[C@@H](C)[C@H]1O[C@@H]1C[C@@](C)(O)/C=C/C=C(\C)[C@H]1OC(=O)C[C@H](O)CC[C@@](C)(O)[C@@H](OC(=O)N2CCN(C3CCCCCC3)CC2)/C=C/[C@@H]1C` [compound 2]: the “activity relative to pladienolide B” value in series [5] was “four-fold less active than pladienolide B”. In the case of `CC(=O)O[C@@H](C)/C=C\C(=O)N[C@@H]1C[C@H](C)[C@H](C/C=C(C)/C=C/[C@H]2O[C@](C)(O)C[C@@]3(CO3)[C@@H]2O)O[C@@H]1C` [compound 1], the “cytotoxicity IC50s” value in series [6] (several tumor cell lines) is reported as “low nanomolar range”. Further, the GI50s result in series [6] (several tumor lines) is “single-digit nanomolar range”. Turning to `CC(=O)O[C@@H](C)/C=C\C(=O)N[C@H]1CC[C@@H](C/C=C(C)/C=C/[C@@H]2C[C@]3(CO3)CC(C)(C)O2)CC1` [compound 3a], the IC50 is below 5 µM in series [7] and 2 µM in series [8].
